Read-outs that look alike come from different tables or passages of the source. Peptide text beside a SMILES is read from it. * marks the point of attachment. Cbz = O=C(OCc1ccccc1)*; CH2F = FC*

The test system of data set [1] is Bak BH3 peptide / Bcl-xL (Bcl-xL/GST, Bcl-xL-His6) interaction. Put plainly: Fluorescence polarization assay, labeled Bak BH3 peptide binding to Bcl-xL fusion protein. To be noted: for order of affinities of BH3Is: overall rank order from FP, NMR, pulldown and SELDI results; for order of decreasing affinity, fluorescence polarization assays: rank order. From the text: We have used a fluorescence polarization assay to screen a library of 16,000 chemical compounds (ChemBridge, San Diego, Calif.) to identify small molecules that inhibit the interaction between a peptide corresponding to the BH3 domain of a pro-apoptotic protein and a recombinant Bcl-xL/GST fusion protein. In this assay, an […] peptide corresponding to the BH3 domain of Bak was used. The Bak peptide was labeled with a fluorescent tag, such as OREGON GREEN. Upon binding of the tagged peptide to the Bcl-xL/GST fusion protein, the polarization of light emitted by the tagged peptide is altered. […] Conversely, in a sample in which a compound does inhibit the interaction between the Bak peptide and the Bcl-xL/GST fusion protein the polarization of light emitted by the peptide will not be altered.
A nineteen amino acid Bak peptide, corresponding to the BH3 domain of Bak, with the sequence […] (SEQ ID NO: 2) was labeled with the fluorophore OREGON GREEN according to the manufacturer's instructions (Molecular Probes, Eugene, Oreg.). In addition, a recombinant Bcl-xL/GST fusion protein was generated using conventional techniques known to those skilled in the fields of biochemistry and molecular biology. The interaction between the Bak peptide and the Bcl-xL/GST fusion protein was confirmed.
A screen of approximately 16,000 compounds from the ChemBridge chemical compound library was conducted to identify compounds that disrupt the interaction between the Bak peptide and the Bcl-xL/GST fusion protein. The ability of a compound to disrupt the interaction between the two polypeptides was assessed using a fluorescence polarization assay. The Bak peptide and Bcl-xL/GST fusion protein (15 nM each; dissolved in PBS) were first combined, and then the compound was added. Alternatively, the Bak peptide, Bcl-xL/GST fusion protein, and test compound (5 mg/ml; dissolved in 0.1-0.5 gl of DMSO) may be combined in any order. Normally the unbound Bak polypeptide results in polarization of approximately 40 mP units. Upon binding of the Bcl-xL/GST fusion protein, polarization increased to approximately 100-120 mP units.
In a preferred method, the fluorescence assay was carried out as follows. Bak BH3 peptide (Research Genetics) was labeled using NHS-OREGON GREEN (Molecular Probes) and purified by HPLC. For the initial screening assays, 33 nM of labeled BH3 peptide, 2 μM of GST-Bcl-xL protein, 0.1% bovine gamma globulin (BGG, Sigma) and 1 mM DTT mixed with PBS, pH 7.2 (Gibco) were added into 384 well black plates (Lab Systems) using MULTIDROP (Lab Systems). Small molecules (5 mg/ml in DMSO, ChemBridge) were transferred using plastic 384-pin arrays (Genetix). The plates were incubated for 1-2 hr at 25° C., and the fluorescence polarization assay values were determined using an Analyst plate reader (LJL Biosystems). Reactions containing 16.65 nM of labeled BH3 peptide and 4.2 μM of Bcl-xL-His6 fusion protein, which was previously utilized to characterize BH3/Bcl-xL binding (Sattler et al., Science 275:983-6, 1997) were used for the further fluorescence polarization analyses. Kd and Ki determination was performed as previously described using […] PRISM software package (GraphPad) (Dandliker et al., Methods Enzymol. 74:3-28,1981).
In a further screen, various concentrations of each of the above-identified compounds were evaluated for their potency. A serial dilution of each chemical compound was performed and the fluorescence polarization assay was repeated, as per the primary screen. As a result of the secondary screening, three compounds, chemical compound ID numbers 275805 (BH3I-1; FIG. 1), 282986 (BH3I-1′; FIG. 2), and 175362 (BH3I-2; FIG. 3), collectively termed “BH3Is,” were identified to disrupt the interaction between Bak and the BCL-xL/GST fusion protein. […] Additional homologues of the BH3I-1s (BH3I-1″ and BH3I-1′″) and BH3I-2 (BH3-2″ and BH3I-2″) were also analyzed in the study (FIG. 4). […]

The target in a further data set is T1, Bcl-xL (Homo sapiens, UniProt Q07817, DEL45-84).
T1 construct: His6 (C); made in house
As to the kind of experiment: NMR titration of Bcl-xL. To be noted: rank order. It is filed as binding. On the procedure:
To verify this conclusion, NMR titrations of Bcl-xL with BH3I-1s were performed and their Ki values were determined (FIG. 4). […] The BH3I-1s Ki values obtained by the NMR approach agree with the results of both pulldown and SELDI analyses. Therefore, the order of affinities of BH3Is is: BH312′>BH3I-2>BH3I-2″>BH3I-1>BH3I-1′>BH3I-1″>BH3I-1′″.
NMR titration was used to examine whether BH3Iinteracts with the binding pocket of Bcl-xL in a manner similar to Bak BH3 peptide (Hajduk et al., Science 278:497-499, 1997).
Next, changes in Bcl-xL structure upon addition of increasing amounts of BH3Is were determined. Each of the BH3Is induced significant changes in the Bcl-xL structure. The compounds targeted the hydrophobic cleft formed by the BH1, BH2, and BH3 domains on the surface of the Bcl-xL protein, and primarily bound to the area formed by BH1 and BH2 domains.

For another data set, the system named is HeLa cells. As to the kind of experiment: Cell death by ATP levels after zVAD-fmk pretreatment. In kind it is cell-based. Conditions: zVAD-fmk 100 μM pretreatment, 48 or 72 hours. As for the experimental part: The conditions under which cell death occurs in the presence of BH3Is were further evaluated. HeLa cells were pretreated with zVAD-fmk (100 μM) for 1 hour. The purpose of such a treatment was to inhibit the intracellular pathways mediating cell death by apoptosis. Each of the chemical compounds BH3I-1, BH3I-1′, or BH3I-2 was then added to the media of the cells of three separate samples. After 48 or 72 hours of exposure of the cells to zVAD-fmk and the chemical compound, the level of cell death was measured for each sample, by measuring cellular ATP levels.

In data set [2] the test system is HeLa cells that stably overexpress human BCL-XL. As to the kind of experiment: Cell death by ATP levels in Bcl-xL overexpressing cells after zVAD-fmk pretreatment. In kind it is cell-based. To be noted: zVAD-fmk 100 μM pretreatment, 48 or 72 hours. On the procedure: In another study, HeLa cells that stably overexpress human BCL-XL, and are therefore more resistant to cell death, were pretreated with zVAD-fmk (100 μM) for 1 hour, as described above. Each of the chemical compounds BH3I-1, BH3I-1′, and BH3I-2 from the ChemBridge library was then added to the media of the cells of three separate samples. After 48 or 72 hours of exposure of the cells to zVAD-fmk and the chemical compound, the level of cell death was measured for each sample, by measuring cellular ATP levels.

The next data set concerns Jurkat cells. As to the kind of experiment: Cytotoxicity by MTS assay and propidium iodide uptake. In kind it is cell-based. As for the experimental part: Since BH3Is induce apoptosis, their mode of action, for example, through disruption of BH3 domain interactions, was investigated next. If apoptosis induced by a BH3I is BH3-dependent, then cytotoxicity should correlate with the compound's ability to disrupt BH3 domain interactions in vitro. To examine this possibility, Jurkat cells were treated with the BH3 Is and the occurrence of cell death was assayed by the MTS assay and propidium iodide (PI) uptake (FIG. 7A). The cytotoxicity of BH3-Is followed the order of BH3I-2′>BH3I-2>BH3I-2″>BH3I-1>BH3I-1′>BH3I-1″>BH3I-1′″ which paralleled the order of their Ki values determined using in vitro Bcl-xL binding assays (FIGS. 7B and 7C). Similar data were obtained using a trypan blue exclusion assay.

Another data set deals with HeLa cells, Jurkat cells. Put plainly: Caspase dependence of BH3I-induced cell death (zVAD-fmk). To be noted: Hoechst dye. In kind it is cell-based. On the procedure:
FIG. 10A is a graph showing the comparison of BH3Is and Bax induced cell death. HeLa cells were transfected with YFP-Bax and pEYFP-C 1 for 48 hr in the absence (open bars) or presence (closed bars) of 100 μM zVAD-fmk. YFP transfected cells were also treated with BH3I-1 (100 μM) or BH3I-2 (50 μM) for 48 hours. Cell viability was determined by propidium iodide (PI) staining and microscopic examination of PI/YFP positive cells. Numbers represent the percentage of PI positive cells in the YFP positive population. The values of standard deviation are also shown.
FIG. 10B is a graph showing the attenuation of BH3Is' cytotoxicities by the pan-caspase inhibitor zVAD-fmk. Jurkat cells were treated with BH3I-1 or BH3I-2 in the presence (open bars) or absence (closed bars) of 100 μM zVAD-fmk (Alexis) for 48 hr. Cell death was determined using an MTS assay. Numbers represent the percentages of cell death, normalized relative to a DMSO treated control, which was set at 100% viability. Standard deviation values are also shown.
FIG. 10C is a set of images of cells showing that nuclear fragmentation, but not cytochrome c release, induced by BH3Is, requires caspases. […]
FIG. 10D-1-10D-6 are a series of graphs showing DNA fragmentation analysis of Jurkat cells treated with BH3Is and zVAD-fmk. […] Samples were analyzed by FACS, and the percentage of subG1 DNA is shown for each sample. […]

Where [3] appears, read: MTS assay and PI uptake, rank order.

T1 sequence (Q07817 with tags, fused parts or gaps DEL45-84 limits assumed): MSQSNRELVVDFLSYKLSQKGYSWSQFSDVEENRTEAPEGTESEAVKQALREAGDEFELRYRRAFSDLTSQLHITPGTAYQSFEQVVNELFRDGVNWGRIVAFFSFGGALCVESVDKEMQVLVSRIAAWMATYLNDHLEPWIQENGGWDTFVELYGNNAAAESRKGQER

As for `CC(C)C(C(=O)O)N1C(=O)/C(=C/c2ccc(Cl)cc2)SC1=S` (stereo not shown) [BH3I-1′], the “order of affinities of BH3Is” value in data set [1] was “BH312′>BH3I-2>BH3I-2″>BH3I-1>BH3I-1′>BH3I-1″>BH3I-1′″”. Further, the “order of decreasing affinity, fluorescence polarization assays” value (shortened to “order of decreasing affinity”) in data set [1] is listed as “BH3I-1>BH3I-1′>BH3I-2′>BH3I-2>BH3I-2″>BH3I-1″”. The “relative order of affinities, NMR titrations” value on Bcl-xL is given as “BH3I-1>BH3I-1′>BH3I-1″>BH3I-1′″”. Besides, the “cellular ATP levels” value (with HeLa cells; in data set [2]) was “cellular ATP levels decreased” throughout. Moreover, the order of cytotoxicity entry with Jurkat cells (setting [3]) is on record as “BH3I-2′>BH3I-2>BH3I-2″>BH3I-1>BH3I-1′>BH3I-1″>BH3I-1′″”.
For `CC(C)C(C(=O)O)N1C(=O)/C(=C/c2ccc(N(C)C)cc2)SC1=S` (stereo not shown) [BH3I-1′″], the “order of affinities of BH3Is” value in data set [1] is given as “BH312′>BH3I-2>BH3I-2″>BH3I-1>BH3I-1′>BH3I-1″>BH3I-1′″”. In addition, the “relative order of affinities, NMR titrations” value at Bcl-xL is given as “BH3I-1>BH3I-1′>BH3I-1″>BH3I-1′″”. The order of cytotoxicity result in the data set on Jurkat cells is reported as “BH3I-2′>BH3I-2>BH3I-2″>BH3I-1>BH3I-1′>BH3I-1″>BH3I-1′″”.
As for `O=C(Nc1cc(S(=O)(=O)c2ccc(Cl)cc2)ccc1Cl)c1cc(Cl)cc(I)c1O` [BH3I-2′], in data set [1], the “order of affinities of BH3Is” value is recorded as “BH312′>BH3I-2>BH3I-2″>BH3I-1>BH3I-1′>BH3I-1″>BH3I-1′″” and the “order of decreasing affinity” value is listed as “BH3I-1>BH3I-1′>BH3I-2′>BH3I-2>BH3I-2″>BH3I-1″”. The order of cytotoxicity result in the data set on Jurkat cells (setting [3]) is reported as “BH3I-2′>BH3I-2>BH3I-2″>BH3I-1>BH3I-1′>BH3I-1″>BH3I-1′″”.
`O=C(Nc1cc(S(=O)(=O)c2ccc(Cl)cc2)ccc1Cl)c1cc(I)cc(I)c1O` [BH3I-2″]: in data set [1], the “order of affinities of BH3Is” value is given as “BH312′>BH3I-2>BH3I-2″>BH3I-1>BH3I-1′>BH3I-1″>BH3I-1′″” and the “order of decreasing affinity” value is on record as “BH3I-1>BH3I-1′>BH3I-2′>BH3I-2>BH3I-2″>BH3I-1″”. Moreover, the order of cytotoxicity entry in the data set with Jurkat cells (setting [3]) is “BH3I-2′>BH3I-2>BH3I-2″>BH3I-1>BH3I-1′>BH3I-1″>BH3I-1′″”.
Regarding `COC(=O)C[C@H](NC(=O)[C@H](C)NC(=O)[C@@H](NC(=O)OCc1ccccc1)C(C)C)C(=O)CF` [zVAD-fmk] (Cbz-Val-Ala-Asp(OMe)-CH2F), in the data set on HeLa cells, Jurkat cells, the “protection from BH3I-induced nuclear fragmentation” value was “completely protected cells from BH3I-induced nuclear fragmentation”.

For the origin of these results see patent US7390836B2, “Small molecules used to increase cell death” (priority 1999, dated 2008).
